Experimental data from ChEMBL document CHEMBL3217524, “The anti-tumor antibiotic PD 113,271 binds to microtubule-associated protein 1B (MAP1B)” (Medchemcomm, 2011).
Values after ≈ are worked out from the molar mass of the structure shown. Active and inactive are the calls of the source. The rule behind the calls is not given here.

Key:
[1] = Cytotoxicity against human HCT8 cells; assay type: functional, cell-based; settings: HCT-8
[2] = biological target: Microtubule-associated protein 1B (Rattus norvegicus) (UniProt P15205); assay: Binding affinity to MAP1B in rat PC12 cells after 2 hrs by Western blotting analysis; assay type: cell-based; settings: PC-12
L1210 = assay: Cytotoxicity against mouse L1210 cells; assay type: functional, cell-based
[3] = biological target: T1, Microtubule-associated protein 1B (Homo sapiens, UniProt P46821); assay: Binding affinity to human recombinant MAP1B-HBR (589 to 790) expressed in Escherichia coli BL21(DE3) assessed as inhibition of MAP1B-HBR-tubulin interaction at 1 to 20 uM by surface plasmon resonance analysis
[4] = biological target: T1, Microtubule-associated protein 1B; assay: Binding affinity to MAP1B in human MCF7 cells assessed as protein localization around perinuclear region at 1 uM after 24 hrs by DAPI staining-based immunofluorescence microscopy relative to control; assay type: cell-based
Ehrlich = assay: Inhibition of topoisomerse-2 in mouse EAC cells; assay type: cell-based
[5] = biological target: T1, Microtubule-associated protein 1B; assay: Binding affinity to MAP1B in human MCF7 cells assessed as protein complex at 1 uM after 24 hrs by DAPI staining-based immunofluorescence microscopy relative to control; assay type: cell-based
[6] = biological target: Ribosomal L1 domain-containing protein 1 (Homo sapiens) (UniProt O76021); assay: Binding affinity to human ribosomal L1 domain containing protein (309 to 432) expressed in T7 phage after 1 hr by ELISA
[7] = biological target: T1, Microtubule-associated protein 1B; assay: Binding affinity to human MAP1B (582 to 705) expressed in T7 phage after 1 hr by ELISA
[8] = biological target: T1, Microtubule-associated protein 1B; assay: Binding affinity to human recombinant MAP1B-HBR (589 to 790) expressed in Escherichia coli BL21(DE3) by surface plasmon resonance analysis
[9] = Inhibition of PP2A (unknown origin) by spectrophotometry; design: species or system Homo sapiens

T1 sequence (P46821 2-2206 limits assumed): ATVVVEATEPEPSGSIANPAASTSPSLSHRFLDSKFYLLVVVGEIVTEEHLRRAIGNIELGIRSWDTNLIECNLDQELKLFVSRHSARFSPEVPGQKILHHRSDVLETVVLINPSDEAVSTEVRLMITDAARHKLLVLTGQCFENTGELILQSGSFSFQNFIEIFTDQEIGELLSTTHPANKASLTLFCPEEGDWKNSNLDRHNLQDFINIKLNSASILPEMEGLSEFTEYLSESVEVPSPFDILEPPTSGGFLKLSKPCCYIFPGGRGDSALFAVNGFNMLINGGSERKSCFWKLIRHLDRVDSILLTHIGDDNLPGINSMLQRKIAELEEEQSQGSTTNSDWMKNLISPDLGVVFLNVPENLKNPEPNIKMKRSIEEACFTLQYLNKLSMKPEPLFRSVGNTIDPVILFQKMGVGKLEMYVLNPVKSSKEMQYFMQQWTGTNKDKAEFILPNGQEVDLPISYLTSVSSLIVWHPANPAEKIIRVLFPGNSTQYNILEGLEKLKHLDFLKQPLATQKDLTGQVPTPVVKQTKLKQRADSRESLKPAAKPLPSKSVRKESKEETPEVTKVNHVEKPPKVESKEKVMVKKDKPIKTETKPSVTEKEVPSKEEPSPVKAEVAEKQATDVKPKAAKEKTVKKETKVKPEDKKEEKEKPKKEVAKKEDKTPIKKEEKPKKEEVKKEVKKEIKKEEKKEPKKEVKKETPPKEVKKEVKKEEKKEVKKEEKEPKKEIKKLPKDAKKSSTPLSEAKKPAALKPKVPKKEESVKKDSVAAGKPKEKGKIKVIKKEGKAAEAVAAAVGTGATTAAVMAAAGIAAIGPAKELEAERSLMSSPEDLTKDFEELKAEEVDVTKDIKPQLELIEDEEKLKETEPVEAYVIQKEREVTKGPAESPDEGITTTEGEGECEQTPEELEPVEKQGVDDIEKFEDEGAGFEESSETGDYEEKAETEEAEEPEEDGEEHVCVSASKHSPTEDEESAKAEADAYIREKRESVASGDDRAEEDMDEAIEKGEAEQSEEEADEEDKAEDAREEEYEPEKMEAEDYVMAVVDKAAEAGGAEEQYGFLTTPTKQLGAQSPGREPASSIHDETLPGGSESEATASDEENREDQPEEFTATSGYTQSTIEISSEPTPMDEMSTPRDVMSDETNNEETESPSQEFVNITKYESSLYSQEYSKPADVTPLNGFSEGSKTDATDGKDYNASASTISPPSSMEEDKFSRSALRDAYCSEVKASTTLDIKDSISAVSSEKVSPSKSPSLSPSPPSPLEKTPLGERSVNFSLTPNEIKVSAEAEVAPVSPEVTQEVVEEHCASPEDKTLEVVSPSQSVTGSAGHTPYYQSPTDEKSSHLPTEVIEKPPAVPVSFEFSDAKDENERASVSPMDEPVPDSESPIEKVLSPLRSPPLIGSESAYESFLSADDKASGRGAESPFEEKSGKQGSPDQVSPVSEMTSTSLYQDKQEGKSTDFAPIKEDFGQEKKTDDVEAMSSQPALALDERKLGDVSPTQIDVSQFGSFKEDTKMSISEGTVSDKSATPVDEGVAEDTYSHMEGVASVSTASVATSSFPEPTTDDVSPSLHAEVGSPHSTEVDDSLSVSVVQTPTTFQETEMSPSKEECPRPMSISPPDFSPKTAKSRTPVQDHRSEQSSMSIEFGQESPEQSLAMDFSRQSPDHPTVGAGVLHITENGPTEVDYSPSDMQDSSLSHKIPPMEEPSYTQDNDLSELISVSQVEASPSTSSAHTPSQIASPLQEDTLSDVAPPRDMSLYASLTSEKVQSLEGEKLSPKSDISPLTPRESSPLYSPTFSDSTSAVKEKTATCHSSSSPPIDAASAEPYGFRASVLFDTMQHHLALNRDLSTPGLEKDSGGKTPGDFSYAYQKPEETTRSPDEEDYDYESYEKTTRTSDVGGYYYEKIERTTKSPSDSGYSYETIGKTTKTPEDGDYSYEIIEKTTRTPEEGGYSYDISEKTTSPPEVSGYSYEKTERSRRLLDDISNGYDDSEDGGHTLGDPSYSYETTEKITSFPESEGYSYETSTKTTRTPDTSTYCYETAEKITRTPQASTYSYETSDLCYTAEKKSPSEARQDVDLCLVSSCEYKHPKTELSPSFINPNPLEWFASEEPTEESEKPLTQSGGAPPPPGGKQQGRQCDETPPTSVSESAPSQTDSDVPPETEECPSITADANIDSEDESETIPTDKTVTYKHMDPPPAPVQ
T1 sequence (P46821 2207-2468 limits assumed): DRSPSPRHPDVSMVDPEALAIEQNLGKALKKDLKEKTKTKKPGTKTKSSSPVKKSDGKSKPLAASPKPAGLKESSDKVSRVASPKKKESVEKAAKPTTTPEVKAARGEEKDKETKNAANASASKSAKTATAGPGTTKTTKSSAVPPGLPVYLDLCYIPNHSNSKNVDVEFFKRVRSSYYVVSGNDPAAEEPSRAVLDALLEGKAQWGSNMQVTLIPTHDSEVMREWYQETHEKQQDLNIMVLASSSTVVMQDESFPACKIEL
Microtubule-associated protein 1B (Rattus norvegicus), sequence (P15205 whole entry): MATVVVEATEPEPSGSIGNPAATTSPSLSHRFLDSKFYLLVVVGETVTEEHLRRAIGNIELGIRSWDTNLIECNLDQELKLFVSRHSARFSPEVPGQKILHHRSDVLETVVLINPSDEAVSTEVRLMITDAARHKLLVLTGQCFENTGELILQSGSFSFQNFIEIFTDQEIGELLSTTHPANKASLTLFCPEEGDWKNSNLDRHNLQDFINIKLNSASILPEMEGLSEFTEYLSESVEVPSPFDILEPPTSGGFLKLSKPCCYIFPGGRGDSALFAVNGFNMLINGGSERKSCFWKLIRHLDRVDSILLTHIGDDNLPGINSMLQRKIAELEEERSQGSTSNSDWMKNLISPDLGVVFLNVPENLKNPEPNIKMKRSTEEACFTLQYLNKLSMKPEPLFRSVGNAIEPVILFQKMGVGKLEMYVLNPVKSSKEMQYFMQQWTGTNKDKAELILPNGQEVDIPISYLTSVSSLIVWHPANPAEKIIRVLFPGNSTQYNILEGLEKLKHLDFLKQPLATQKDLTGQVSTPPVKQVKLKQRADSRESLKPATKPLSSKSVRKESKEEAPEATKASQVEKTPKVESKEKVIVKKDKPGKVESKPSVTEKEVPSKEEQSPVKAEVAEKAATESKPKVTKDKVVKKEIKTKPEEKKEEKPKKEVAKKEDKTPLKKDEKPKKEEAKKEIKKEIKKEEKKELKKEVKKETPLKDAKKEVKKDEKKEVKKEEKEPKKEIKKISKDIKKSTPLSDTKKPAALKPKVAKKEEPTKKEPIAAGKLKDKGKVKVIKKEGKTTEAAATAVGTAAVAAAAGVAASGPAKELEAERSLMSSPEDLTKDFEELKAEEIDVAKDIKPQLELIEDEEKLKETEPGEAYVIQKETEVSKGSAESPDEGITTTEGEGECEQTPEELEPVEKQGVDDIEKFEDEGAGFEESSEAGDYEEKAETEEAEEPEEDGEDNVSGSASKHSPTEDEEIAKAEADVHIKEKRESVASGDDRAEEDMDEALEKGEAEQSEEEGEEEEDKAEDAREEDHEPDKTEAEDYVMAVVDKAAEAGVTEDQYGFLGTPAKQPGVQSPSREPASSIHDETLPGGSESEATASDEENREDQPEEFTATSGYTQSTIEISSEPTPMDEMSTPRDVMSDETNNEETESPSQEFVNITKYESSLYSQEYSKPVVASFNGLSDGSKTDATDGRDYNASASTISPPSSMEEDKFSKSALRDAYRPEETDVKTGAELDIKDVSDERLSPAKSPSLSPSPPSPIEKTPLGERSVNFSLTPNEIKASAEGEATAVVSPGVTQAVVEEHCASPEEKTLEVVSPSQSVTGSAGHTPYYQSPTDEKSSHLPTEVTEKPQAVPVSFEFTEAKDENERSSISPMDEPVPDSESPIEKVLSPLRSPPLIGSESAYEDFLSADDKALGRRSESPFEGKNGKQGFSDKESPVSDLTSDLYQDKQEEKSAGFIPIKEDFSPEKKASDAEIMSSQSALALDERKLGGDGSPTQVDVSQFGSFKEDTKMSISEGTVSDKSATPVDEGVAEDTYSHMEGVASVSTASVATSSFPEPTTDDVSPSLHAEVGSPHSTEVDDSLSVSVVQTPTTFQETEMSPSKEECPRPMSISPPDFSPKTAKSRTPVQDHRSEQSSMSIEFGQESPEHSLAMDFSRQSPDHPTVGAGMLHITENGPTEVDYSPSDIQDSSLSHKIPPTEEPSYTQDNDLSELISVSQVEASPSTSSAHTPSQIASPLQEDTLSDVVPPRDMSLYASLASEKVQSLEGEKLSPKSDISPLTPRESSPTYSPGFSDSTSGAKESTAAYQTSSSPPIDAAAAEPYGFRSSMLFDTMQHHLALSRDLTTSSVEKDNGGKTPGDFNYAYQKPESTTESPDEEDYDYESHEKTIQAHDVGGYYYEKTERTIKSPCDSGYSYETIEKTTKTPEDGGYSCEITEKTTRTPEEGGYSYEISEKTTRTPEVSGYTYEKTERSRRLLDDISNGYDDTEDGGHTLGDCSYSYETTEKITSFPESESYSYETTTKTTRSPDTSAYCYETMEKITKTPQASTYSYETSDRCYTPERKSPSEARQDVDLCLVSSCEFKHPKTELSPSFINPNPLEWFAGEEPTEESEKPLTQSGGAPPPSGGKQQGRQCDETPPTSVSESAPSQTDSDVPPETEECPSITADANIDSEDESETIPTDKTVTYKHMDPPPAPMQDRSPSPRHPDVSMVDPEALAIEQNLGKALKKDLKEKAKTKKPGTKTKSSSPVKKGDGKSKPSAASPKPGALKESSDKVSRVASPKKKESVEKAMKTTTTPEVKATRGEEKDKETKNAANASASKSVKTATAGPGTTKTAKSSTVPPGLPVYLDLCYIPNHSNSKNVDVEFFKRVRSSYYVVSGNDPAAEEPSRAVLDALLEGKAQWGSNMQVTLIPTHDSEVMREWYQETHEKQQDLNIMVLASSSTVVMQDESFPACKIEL

SMILES	IC50 [1]	MIC (Ehrlich)	Activity [6]	Activity [7]	further results
C[C@@](O)(/C=C/[C@@H]1OC(=O)C=C[C@@H]1O)[C@@H](C[C@@H](O)\C=C/C=C\C=C\CO)OP(=O)(O)O	9000 nM	12.5 µM (≈ 5.58 µg/mL)			Activity [2]: Active; IC50 (L1210): 1800 nM; Activity [3]: Active; Activity [4]: Active; Activity [5]: Active
C[C@@](O)(/C=C/[C@@H]1OC(=O)C=C[C@@H]1OCc1ccc(OCCOCCOCc2cn(CCOCCNC(=O)CCCC[C@@H]3SC[C@@H]4NC(=O)N[C@@H]43)nn2)cc1)[C@@H](C[C@@H](O)\C=C/C=C\C=C\CO)OP(=O)(O)O			Active	Active	Kd [8]: 210 nM
C[C@@](O)(/C=C/[C@H]1CC=CC(=O)O1)[C@@H](C[C@@H](O)\C=C/C=C\C=C\CO)OP(=O)(O)O [FOSTRIECIN]	5100 nM	50 µM (≈ 21.5 µg/mL)			IC50 [9]: 1.5 nM
O=C(CCCC[C@@H]1SC[C@@H]2NC(=O)N[C@@H]21)NCCOCCn1cc(COCCOCCOc2ccc(COP(=O)(O)O)cc2)nn1			Active	inactive	
